Assay results taken from patent publication US10131658B2, “Anti-alphavbeta1 integrin compounds and methods” (The Regents of the University of California, priority 2013, dated 2018).

Each compound was assayed on αvβ1 integrin (assay: Cell Adhesion Assay (integrin-specific adhesion, CHO cells transfected with human αv adhering to fibronectin)). Details: Cell Adhesion Assay.
Type: cell-based
Method: The effects of c8 and c16 on cell adhesion mediated by α5β1, α8β1, αvβ1, αvβ3, αvβ5, αvβ6, and αvβ8 were measured using pairs of cell lines and ligands selected to isolate the effect of each individual integrin. For α5β1 we utilized the colon carcinoma cell line, SW480, plated on 0.3 μg/ml fibronectin, for α8β1, we utilized SW480 cells transfected with human α8 adhering to 1 μg/ml recombinant TGFβ1 LAP [5], for αvβ1 we used Chinese Hamster Ovary Cells (CHO cells) transfected with human αv adhering to 0.3 μg/ml fibronectin [6], for αvβ3 we used SW480 cells transfected with human β3, for αvβ5 we used wild type SW480 cells adhering to 0.1 μg/ml vitronectin. […] Cells were allowed to attach for 30-60 min at 37° C. After incubation, non-adherent cells were removed by discarding the media and spinning the plate top-side down at 500 rpm for 5 minutes. Cells were then fixed and stained with 40 ul of 0.5% Crystal violet, 1% Formaldehyde, 20% Methanol for 30 minutes and lysed with 2% Trition-X. Absorbance was measured at 595 nm in a Microplate reader. For all assays, concentration-response curves were constructed by non-linear regression analysis and IC50 values were calculated using GraphPad Prism software.
αvβ1 integrin inhibition is effective in cell adhesion assay/mouse liver fibrosis model: Inhibitors were tested in cell adhesion assay to test their potency/selectivity. A panel of cell lines and integrin ligands were developed to allow rapid examination of potency and specificity of inhibitors against all 8 integrins that recognize RGD sequences in ligands. A subset of these was used to generate the very encouraging data about 8 shown above. These cell lines were used to calculate IC50 concentrations for each inhibitor synthesized to rapidly generate structure activity information to drive subsequent modification and synthesis. Inhibitors were evaluated for showing better potency/selectivity in CCl4-induced liver fibrosis. A general inhibitor of αv integrins can reverse fibrosis in this model when administered as a continuous subcutaneous infusion (from Alzet pumps) beginning 3 weeks after CCl4 initiation. However, global inhibition of all αv integrins is likely to cause unacceptable side effects. […] As above, pumps will be inserted after 3 weeks of CCl4 treatment. Once we find small molecules that are effective, each will be further tested in the UUO model of renal fibrosis and the bleomycin model of pulmonary fibrosis. Again we will examine therapeutic rather than prophylactic efficacy by beginning treatment in each model after the onset of fibrosis.

IC50 [nM]	SMILES
< 10	CNCCCCCC(=O)N[C@H](CCCNC(=N)N)C(=O)Nc1ccc(C[C@H](NC(=O)[C@@H]2CCCN2S(=O)(=O)c2ccccc2)C(=O)O)cc1 (stereo in doubt) [Compound 199]
1000 to 10000	NCC(=O)Nc1ccc(C[C@H](NC(=O)[C@@H]2CCCN2S(=O)(=O)c2ccccc2)C(=O)O)cc1 [Compound 1, (S)-3-(4-(2-aminoacetamido)phenyl)-2-((S)-1-(phenylsulfonyl)pyrrolidine-2-carboxamido)propanoic acid]
10 to 1000	NCCC(=O)Nc1ccc(C[C@H](NC(=O)[C@@H]2CCCN2S(=O)(=O)c2ccccc2)C(=O)O)cc1 [Compound 2, (S)-3-(4-(3-aminopropanamido)phenyl)-2-((S)-1-(phenylsulfonyl)pyrrolidine-2-carboxamido)propanoic acid]
10 to 1000	NCCCC(=O)Nc1ccc(C[C@H](NC(=O)[C@@H]2CCCN2S(=O)(=O)c2ccccc2)C(=O)O)cc1 [Compound 3, (S)-3-(4-(4-aminobutanamido)phenyl)-2-((S)-1-(phenylsulfonyl)pyrrolidine-2-carboxamido)propanoic acid]
10 to 1000	N=C(N)NCC(=O)Nc1ccc(C[C@H](NC(=O)[C@@H]2CCCN2S(=O)(=O)c2ccccc2)C(=O)O)cc1 [Compound 4, (S)-3-(4-(2-guanidinoacetamido)phenyl)-2-((S)-1-(phenylsulfonyl)pyrrolidine-2-carboxamido)propanoic acid]
< 10	N=C(N)NCCC(=O)Nc1ccc(C[C@H](NC(=O)[C@@H]2CCCN2S(=O)(=O)c2ccccc2)C(=O)O)cc1 [Compound 5, (S)-3-(4-(3-guanidinopropanamido)phenyl)-2-((S)-1-(phenylsulfonyl)pyrrolidine-2-carboxamido)propanoic acid]
< 10	NCCCC(=O)Nc1ccc(C[C@H](NC(=O)[C@@H]2CCCN2S(=O)(=O)c2ccccc2)C(=O)O)cc1 [Compound 6, (S)-3-(4-(4-aminobutanamido)phenyl)-2-((S)-1-(phenylsulfonyl)pyrrolidine-2-carboxamido)propanoic acid]
1000 to 10000	NCCCCC(=O)Nc1ccc(C[C@H](NC(=O)[C@@H]2CCCN2S(=O)(=O)c2ccccc2)C(=O)O)cc1 [Compound 7, (S)-3-(4-(5-aminopentanamido)phenyl)-2-((S)-1-(phenylsulfonyl)pyrrolidine-2-carboxamido)propanoic acid]
< 10	N=C(N)NCCCCC(=O)Nc1ccc(C[C@H](NC(=O)[C@@H]2CCCN2S(=O)(=O)c2ccccc2)C(=O)O)cc1 [Compound 8, (S)-3-(4-(5-guanidinopentanamido)phenyl)-2-((S)-1-(phenylsulfonyl)pyrrolidine-2-carboxamido)propanoic acid]
1000 to 10000	NCCCCCC(=O)Nc1ccc(C[C@H](NC(=O)[C@@H]2CCCN2S(=O)(=O)c2ccccc2)C(=O)O)cc1 [Compound 9, (S)-3-(4-(6-aminohexanamido)phenyl)-2-((S)-1-(phenylsulfonyl)pyrrolidine-2-carboxamido)propanoic acid]
10 to 1000	N=C(N)NCCCCCC(=O)Nc1ccc(C[C@H](NC(=O)[C@@H]2CCCN2S(=O)(=O)c2ccccc2)C(=O)O)cc1 [Compound 10, (S)-3-(4-(6-guanidinohexanamido)phenyl)-2-((S)-1-(phenylsulfonyl)pyrrolidine-2-carboxamido)propanoic acid]
10 to 1000	O=C(CCCCNC1=NCCN1)Nc1ccc(C[C@H](NC(=O)[C@@H]2CCCN2S(=O)(=O)c2ccccc2)C(=O)O)cc1 [Compound 11, (S)-3-(4-(5-((4,5-dihydro-1H-imidazol-2-yl)amino)pentanamido)phenyl)-2-((S)-1-(phenylsulfonyl)pyrrolidine-2-carboxamido)propanoic acid]
10 to 1000	O=C(CCCCNC1=NCCCN1)Nc1ccc(C[C@H](NC(=O)[C@@H]2CCCN2S(=O)(=O)c2ccccc2)C(=O)O)cc1 [Compound 60]
10 to 1000	O=C(CCCc1ccc2c(n1)NCCC2)Nc1ccc(C[C@H](NC(=O)[C@@H]2CCCN2S(=O)(=O)c2ccccc2)C(=O)O)cc1 [Compound 63]
< 10	O=C(CCCNC1=NCCN1)Nc1ccc(C[C@H](NC(=O)[C@@H]2CCCN2S(=O)(=O)c2ccccc2)C(=O)O)cc1 [Compound 87, (S)-3-(4-(4-((4,5-dihydro-1H-imidazol-2-yl)amino)butanamido)phenyl)-2-((S)-1-(phenylsulfonyl)pyrrolidine-2-carboxamido)propanoic acid]
10 to 1000	N=C(N)NC(=O)CCC(=O)Nc1ccc(C[C@H](NC(=O)[C@@H]2CCCN2S(=O)(=O)c2ccccc2)C(=O)O)cc1 [Compound 93]
10 to 1000	CNCCCCCC(=O)N[C@H](CCCNC(=N)N)C(=O)Nc1ccc(C[C@H](NC(=O)C2CCCN2S(=O)(=O)c2ccccc2)C(=O)O)cc1 (stereo partly drawn) [Compound 198]
10 to 1000	N=C(N)Nc1ccc(C(=O)Nc2ccc(C[C@H](NC(=O)[C@@H]3CCCN3S(=O)(=O)c3ccccc3)C(=O)O)cc2)cc1 [Compound 200, (S)-3-(4-(4-guanidinobenzamido)phenyl)-2-((S)-1-(phenylsulfonyl)pyrrolidine-2-carboxamido)propanoic acid]
< 10	N=C(N)Nc1cccc(C(=O)Nc2ccc(C[C@H](NC(=O)[C@@H]3CCCN3S(=O)(=O)c3ccccc3)C(=O)O)cc2)c1 [Compound 201, (S)-3-(4-(3-guanidinobenzamido)phenyl)-2-((S)-1-(phenylsulfonyl)pyrrolidine-2-carboxamido)propanoic acid]
10 to 1000	N=C(N)NCCOCC(=O)Nc1ccc(C[C@H](NC(=O)[C@@H]2CCCN2S(=O)(=O)c2ccccc2)C(=O)O)cc1 [Compound 204, (S)-3-(4-(2-(2-guanidinoethoxy)acetamido)phenyl)-2-((S)-1-(phenylsulfonyl)pyrrolidine-2-carboxamido)propanoic acid]
10 to 1000	N=C(N)Nc1cccc(CC(=O)Nc2ccc(C[C@H](NC(=O)[C@@H]3CCCN3S(=O)(=O)c3ccccc3)C(=O)O)cc2)c1 [Compound 205, (S)-3-(4-(2-(3-guanidinophenyl)acetamido)phenyl)-2-((S)-1-(phenylsulfonyl)pyrrolidine-2-carboxamido)propanoic acid]
10 to 1000	Cc1ccc(NCCCC(=O)Nc2ccc(C[C@H](NC(=O)[C@@H]3CCCN3S(=O)(=O)c3ccccc3)C(=O)O)cc2)nc1 [Compound 206, (S)-3-(4-(4-((5-methylpyridin-2-yl)amino)butanamido)phenyl)-2-((S)-1-(phenylsulfonyl)pyrrolidine-2-carboxamido)propanoic acid]
10 to 1000	Cc1cccc(NCCCC(=O)Nc2ccc(C[C@H](NC(=O)[C@@H]3CCCN3S(=O)(=O)c3ccccc3)C(=O)O)cc2)n1 [Compound 207, (S)-3-(4-(4-((6-methylpyridin-2-yl)amino)butanamido)phenyl)-2-((S)-1-(phenylsulfonyl)pyrrolidine-2-carboxamido)propanoic acid]
10 to 1000	Cc1cnc(NCCCC(=O)Nc2ccc(C[C@H](NC(=O)[C@@H]3CCCN3S(=O)(=O)c3ccccc3)C(=O)O)cc2)c(C)c1 [Compound 210, (S)-3-(4-(4-((3,5-dimethylpyridin-2-yl)amino)butanamido)phenyl)-2-((S)-1-(phenylsulfonyl)pyrrolidine-2-carboxamido)propanoic acid]
10 to 1000	N=C(N)NCCCC(=O)Nc1ccc(C[C@H](NC(=O)[C@@H]2CCCCN2S(=O)(=O)c2ccccc2)C(=O)O)cc1 [Compound 212]
< 10	O=C(CCCNc1ccccn1)Nc1ccc(C[C@H](NC(=O)[C@@H]2CCCCN2S(=O)(=O)c2ccccc2)C(=O)O)cc1 [Compound 213]
10 to 1000	Cc1cc(C)cc(S(=O)(=O)N2CCC[C@H]2C(=O)N[C@@H](Cc2ccc(NC(=O)CCCNC(=N)N)cc2)C(=O)O)c1 [Compound 214]
< 10	CN(C)c1cccc2c(S(=O)(=O)N3CCCC3C(=O)N[C@@H](Cc3ccc(NC(=O)CCCCNC(=N)N)cc3)C(=O)O)cccc12 (stereo partly drawn) [Compound 215]

Same assay, conditions: preliminary studies; highly selective manner

SMILES	concentration that inhibits cell adhesion by αvβ1 integrin [pM]
N=C(N)NCCCCC(=O)Nc1ccc(C[C@H](NC(=O)[C@@H]2CCCN2S(=O)(=O)c2ccccc2)C(=O)O)cc1 [Compound 8, (S)-3-(4-(5-guanidinopentanamido)phenyl)-2-((S)-1-(phenylsulfonyl)pyrrolidine-2-carboxamido)propanoic acid]	< 100

What follows are compounds tested on TGFβ activation by cells expressing αvβ1 (assay: TGFβ activation assay (co-culture with PAI1-luciferase TGFβ reporter cells)). Details: not given.
Type: cell-based
Method: Test cells were plated at 50K cells/well in 96-well plates together with mink lung epithelial cells expressing firefly luciferase downstream of the TGFβ sensitive portion of the plasminogen activator inhibitor 1 promoter (15K cells/well). Cells were co-cultured for 16 hours and TGFβ activity was calculated by measurement of luminescencein the presence and absence of TGFβ-blocking antibody, 1D11.

SMILES	TGFβ activation by cultured liver myofibroblasts
N=C(N)NCCCCC(=O)Nc1ccc(C[C@H](NC(=O)[C@@H]2CCCN2S(=O)(=O)c2ccccc2)C(=O)O)cc1 [Compound 8, (S)-3-(4-(5-guanidinopentanamido)phenyl)-2-((S)-1-(phenylsulfonyl)pyrrolidine-2-carboxamido)propanoic acid]	inhibits TGFβ activation
